# How the values were obtained:
# [1] = test system: Chinese hamster lung fibroblast cells (CHL/IU cells); experiment: Chromosome aberration test using mammals' cultured cells; format: cell-based; conditions: short time and continuous treatment, negative = 5% or less
# Description: (7) Chromosome Aberration Test Using Mammals' Cultured Cells, for Examining Genetic Toxicity: Presence of clastogenic activity of the test compounds on cultured cells was examined by a chromosome aberration test using mammals' cultured cells (Mutat. Res., 48, 337-354). The test was conducted by short time treatment method and continuous treatment method, using Chinese hamster lung fibroblast cells (CHL/IU cells). […] After the end of the culture, the medium was removed and 5 mL of a fresh medium containing solvent or a test compound at the concentration levels designed as above was added to the dishes where the continuous treatment was intended. In the short time treatment in which no S9mix was added, 3 ML of the fresh medium similar to the above was added, and where S9mix was added, 3 mL of a fresh medium formed by adding 0.5 mL of S9mix to 2.5 mL of the fresh medium similar to the above was added to the respective dishes. […] In the continuous treatment, the culture time was increased to 24 hours. In both the short time treatment and continuous treatment, 50 μL of 10 μg/mL colcemide solution was added at two hours preceding the end of the culture. After the end of the culture, the cells were detached by 0.25% trypsine solution and transferred into a centifugation tube. […]
# [2] = test system: Salmonella typhimurium TA 100, TA 1535, TA 98 and TA 1537 strains and Escherichia coli WP 2 uvrA strains; experiment: Reverse mutation test using bacteria (Ames test), with and without metabolic activation; format: cell-based; conditions: 10-5,000 μg/well; with and without Rat Liver S9mix
# Description: (6) Reverse Mutation Test Using Bacteria (Ames Test) for Examining Presence of Gentic Toxicity:
# Reverse mutation-inducing activity on bacteria of the test compounds was examined by reverse mutation test using bacteria (Mutat. Res., 113, 173-215). The test was conducted by plate incorporation method using Salmonella typhimurium TA 100, TA 1535, TA 98 and TA 1537 strains and Escherichia coli WP 2 uvrA strains as to both cases of not conducting metabolic activation and conducting metabolic activation. The dosages were set at six levels as 10, 50, 100, 500, 1000 and 5,000 μg/well.
# Into a sterilized test tube, 0.1 mL of a test compound or a solvent, 0.5 mL of sodium-phosphate buffer (pH=7.4), 0.1 mL of a bacterial suspension and 2 mL of soft agar solution were added and mixed. Where metabolic activation was conducted, […] sodium-phosphate buffer (pH=7.4) was replaced with 0.5 mL of Rat Liver S9mix. The liquid mixture was superposed on the minimum glucose agar medium and after the superposed soft agar solution solidified, the system was cultured at 37° C. for 48 hours. At the end of the culture the number of colonies in which reverse mutation had been induced was visually counted with a colony counter. […]
# steroid sulfatase = molecular target: T1, steroid sulfatase (Rattus norvegicus, UniProt P15589); experiment: Steroid sulfatase inhibitory activity (in vivo), liver and uterus of ovariectomized rats after oral dosing; conditions: 0.5 mg/kg p.o. once a day for seven days, ovariectomized female SD rats
# T1 construct: The livers and uteri were separately minced with scissors and suspended in cooled PBS containing 250 mM sucrose; from tissue; host or cells: liver and uterus of ovariectomized female SD rats (2,000 x g supernatant of homogenate)
# T1 sequence (P15589 20-577): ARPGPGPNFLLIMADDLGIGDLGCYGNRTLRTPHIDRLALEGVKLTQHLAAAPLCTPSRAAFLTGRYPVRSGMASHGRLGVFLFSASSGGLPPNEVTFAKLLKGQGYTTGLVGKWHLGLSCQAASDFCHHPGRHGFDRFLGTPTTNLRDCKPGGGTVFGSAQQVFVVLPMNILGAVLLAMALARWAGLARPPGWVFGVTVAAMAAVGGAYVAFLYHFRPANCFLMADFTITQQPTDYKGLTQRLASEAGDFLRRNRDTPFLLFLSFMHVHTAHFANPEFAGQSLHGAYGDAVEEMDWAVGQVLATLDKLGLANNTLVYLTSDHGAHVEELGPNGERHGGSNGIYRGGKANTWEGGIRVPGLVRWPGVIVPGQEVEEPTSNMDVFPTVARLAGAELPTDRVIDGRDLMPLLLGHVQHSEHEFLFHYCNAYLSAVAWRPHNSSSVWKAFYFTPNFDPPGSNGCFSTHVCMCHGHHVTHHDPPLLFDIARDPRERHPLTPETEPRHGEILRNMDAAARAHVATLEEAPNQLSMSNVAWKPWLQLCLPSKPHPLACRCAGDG
# Description: (2) Measurement of Steroid Sulfatase Inhibitory Activity (in vivo):
# To six/group of female SD rats which had undergone ovariectomy, the test compounds as each suspended in 0.5% polyoxyethylene (20) sorbitan monooleate (Tween 80) were orally administered once a day for seven days. On the next day of the last administration, the rats were sacrificed under ether anesthesia. The bodies were anatomized and their livers and uteri were extracted, which were washed with cooled PBS and stored below −70° C. The livers and uteri were separately minced with scissors and suspended in cooled PBS containing 250 mM sucrose. Each of the suspensions was homogenized with a homogenizer under cooling with ice, from which neclei and cell debris were eliminated by centrifugation at 2,000×g for 20 minutes (4° C.). Protein concentration of each of the supernatant was measured by Bradford's method (Anal. Biochem., 72, 248-254 (1976)).
# To 2-200 μg of the supernatant protein mass and 50 μL of 60 μM estrone-3-sulfate containing about 100 nCi of [6,7-^3H]estrone-3-sulfate (purchased from Perkin Elmer Life Sciences, Boston, Mass., U.S.A.; specific activity, 40-60 Ci/mmol), PBS was added to make the total amount 150 μL, followed by incubation at 37° C. for 30 minutes. After the incubation, the amount of hydrolyzed [6,7-^3H]estrone-3-sulfate was calculated by a method similar to the in vitro measurement in (1) above. Also steroid sulfatase activity per mg of the protein was calculated, and from the amount of the hydrolyzed [6,7-^3H]estrone-3-sulfate and the calculated steroid sulfatase activity per mg of the protein, the tested compound's steroid sulfatase inhibitory rate was determined.
smiles,measurement,setting,value
"NS(=O)(=O)Oc1ccc(N2CCN(CCCC3CCCCC3)CC2)cc1F [Example 24, 4-[4-(3-cyclohexylpropyl)piperazin-1-yl]-2-fluorophenyl-O-sulfamate]",Chromosome aberration test: Numerical abnormality,[1],negative
same,Chromosome aberration test: Structural abnormality,[1],negative
same,Ames test (reverse mutation inducing activity),[2],negative
same,"Inhibitiory rate (0.5 mg/kg, p.o., %) Liver",steroid sulfatase; liver,98.30%
same,"Inhibitiory rate (0.5 mg/kg, p.o., %) Uterus",steroid sulfatase; uterus,97.87%
